Assay results: patent publication US5789434A, “Derivatives of substituted 4-biarylbutyric acid as matrix metalloprotease inhibitors” (priority 1995, dated 1998)

Columns and labels:
MMP-3 = target: T1, MMP-3 (Homo sapiens, UniProt P08254); test: Primary Thiopeptilide MMP-3 Inhibition Assay; type: biochemical; conditions: for inhibition at 5 µM: read-out: MMP-3 Thiopep. % inhibition; for IC50: pH 6.5, 13 nM stromelysin, x (n) = average of n determinations, read-out: MMP-3 Thiopep. IC50
T1 construct: Truncated Prostromelysin-257 was expressed in a soluble form in E.coli; made in house; host or cells: E. coli
T1 sequence (P08254 100-274 limits assumed): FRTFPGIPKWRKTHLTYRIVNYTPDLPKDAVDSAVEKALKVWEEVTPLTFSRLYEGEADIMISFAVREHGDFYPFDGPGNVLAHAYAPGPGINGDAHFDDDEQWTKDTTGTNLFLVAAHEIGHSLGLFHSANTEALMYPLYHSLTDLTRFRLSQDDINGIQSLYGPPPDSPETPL

MMP-9 = target: T2, MMP-9 (Homo sapiens, UniProt P14780); test: Thiopeptilide MMP-9 Inhibition Assay; type: biochemical; conditions: for inhibition at 5 µM: read-out: MMP-9: Thiopep. % inhibition; for IC50: pH 6.5, x (n) = average of n determinations, read-out: MMP-9: Thiopep. IC50
T2 construct: from tissue; host or cells: human polymorphonuclear leukocytes (PMN) from whole blood (New York Blood Center), PMA-stimulated supernatant
T2 sequence (P14780 107-707 limits assumed): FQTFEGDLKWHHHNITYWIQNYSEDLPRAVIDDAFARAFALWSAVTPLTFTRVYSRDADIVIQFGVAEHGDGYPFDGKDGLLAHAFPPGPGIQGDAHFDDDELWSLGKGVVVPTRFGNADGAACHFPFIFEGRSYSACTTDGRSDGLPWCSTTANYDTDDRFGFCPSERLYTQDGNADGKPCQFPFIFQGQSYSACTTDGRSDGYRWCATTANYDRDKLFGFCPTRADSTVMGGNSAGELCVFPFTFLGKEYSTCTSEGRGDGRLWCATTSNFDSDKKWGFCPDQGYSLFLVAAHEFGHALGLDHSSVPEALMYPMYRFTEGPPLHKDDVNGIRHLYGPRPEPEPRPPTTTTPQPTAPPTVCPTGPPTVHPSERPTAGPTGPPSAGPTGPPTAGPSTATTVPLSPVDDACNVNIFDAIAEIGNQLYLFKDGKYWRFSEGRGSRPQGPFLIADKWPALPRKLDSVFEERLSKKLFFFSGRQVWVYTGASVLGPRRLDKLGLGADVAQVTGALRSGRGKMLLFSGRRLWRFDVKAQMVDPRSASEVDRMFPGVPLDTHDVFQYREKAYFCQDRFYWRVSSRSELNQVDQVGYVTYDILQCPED

Row | Compound | inhibition at 5 µM (MMP-3; at 5 μM) | inhibition at 5 µM (MMP-9) | IC50 (MMP-3) | IC50 (MMP-9) | MMP-3 Thiopep. % inhibition (MMP-3; at 5 μM)
1 | CC(C)CC(CC(=O)c1ccc(-c2ccc(F)cc2F)cc1)C(=O)O (stereo not drawn) [Example 20, [1,1'-Biphenyl]-4-butanoic acid, 2',4'-difluoro-α-(2-methylpropyl)-γ-oxo-] | 32% | 34% |  |  | 
2 | CC(C)CC(CC(=O)c1ccc(Cl)cc1)C(=O)O (stereo not drawn) [Example 27, Benzenebutanoic acid, 4-chloro-α-(2-methylpropyl)-γ-oxo-, reference compound] | 11% | 15% |  |  | 
3 | C=C(CC(=O)c1ccc(C)cc1)C(=O)O [Example 28, Benzenebutanoic acid, 4-methyl-α-methylene-γ-oxo-, reference compound] | 14% | 0% |  |  | 
4 | O=C(O)CCC(O)c1ccc(-c2ccccc2F)cc1 (centres unmarked) [Example 39, [1,1'-Biphenyl]-4-butanoic acid, 2'-fluoro-γ-hydroxy-, reference compound] | 16% | 4% |  |  | 
5 | O=C(CC(CCCc1ccccc1)C(=O)O)c1ccc(-c2ccc(I)cc2)cc1 (stereo not drawn) [Example 40, [1,1'-Biphenyl]-4-butanoic acid, 4'-iodo-γ-oxo-α-(3-phenylpropyl)-] |  |  | 121 nM | 50 nM | 
6 | CC(C)(C)OC(=O)Nc1ccc(-c2ccc(C(=O)CC(CCCc3ccccc3)C(=O)O)cc2)cc1 (stereo not drawn) [Example 47, [1,1'-Biphenyl]-4-butanoic acid, 4'-[[(1,1-dimethylethoxy)carbonyl]amino]-γ-oxo-α-(3-phenylpropyl)-] |  | 22% | 560 nM |  | 
7 | CC(C)(C)c1ccc(-c2ccc(C(=O)CC(CCCc3ccccc3)C(=O)O)cc2)cc1 (stereo not drawn) [Example 48, [1,1'-Biphenyl]-4-butanoic acid, 4'-(1,1-dimethylethyl)-γ-oxo-α-(3-phenylpropyl)-] | 53% | 15% |  |  | 
8 | CC(C)(C)OC(=O)NCc1ccc(-c2ccc(C(=O)CC(CCCc3ccccc3)C(=O)O)cc2)cc1 (stereo not drawn) [Example 49, [1,1'-Biphenyl]-4-butanoic acid, 4'-[[[(1,1-dimethylethoxy)carbonyl]amino]methyl]-γ-oxo-α-(3-phenylpropyl)-] |  | 13% | 750 nM |  | 
9 | N#CCc1ccc(-c2ccc(C(=O)CC(CCCc3ccccc3)C(=O)O)cc2)cc1 (stereo not drawn) [Example 50, [1,1'-Biphenyl]-4-butanoic acid, 4'-(cyanomethyl)γ-oxo-α-(3-phenylpropyl)-] |  |  | 630 nM | 800 nM | 
10 | O=C(CC(CCCc1ccccc1)C(=O)O)c1ccc(-c2ccc(OCCCl)cc2)cc1 (stereo not drawn) [Example 52, [1,1'-Biphenyl]-4-butanoic acid, 4'-(2-chloroethoxy)-γ-oxo-α-(3-phenylpropyl)-] |  |  | 76 nM | 37 nM | 
11 | O=C(CC(CCCc1ccccc1)C(=O)O)c1ccc(-c2ccc(CO)cc2)cc1 (stereo not drawn) [Example 53, [1,1'-Biphenyl]-4-butanoic acid, 4'-(hydroxymethyl)-γ-oxo-α-(3-phenylpropyl)-] |  |  | 950 nM | 800 nM | 
12 | O=C(CC(CCCc1ccccc1)C(=O)O)c1ccc(-c2ccc(OCCO)cc2)cc1 (stereo not drawn) [Example 54, [1,1'-Biphenyl]-4-butanoic acid, 4'-(2-hydroxyethoxy)-γ-oxo-α-(3-phenylpropyl)-] |  |  | 190 nM | 700 nM | 
13 | C=Cc1ccc(-c2ccc(C(=O)CC(CCCc3ccccc3)C(=O)O)cc2)cc1 (stereo not drawn) [Example 55, [1,1'-Biphenyl]-4-butanoic acid, 4'-ethenyl-γ-oxo-α-(3-phenylpropyl)-] |  |  | 170 nM | 110 nM | 
14 | N#Cc1ccc(-c2ccc(C(=O)CC(CCCc3ccccc3)C(=O)O)cc2)cc1 (stereo not drawn) [Example 56, [1,1'-Biphenyl]-4-butanoic acid, 4'-cyano-γ-oxo-α-(3-phenylpropyl)-] |  |  | 310 nM | 700 nM | 
15 | O=C(CC(CCCc1ccccc1)C(=O)O)c1ccc(-c2ccc(-c3nnn[nH]3)cc2)cc1 (stereo not drawn) [Example 57, [1,1'-Biphenyl]-4-butanoic acid, γ-oxo-α-(3-phenylpropyl)-4'-(1H-tetrazol-5-yl)-] | 16% | 22% |  |  | 
16 | NCc1ccc(-c2ccc(C(=O)CC(CCCc3ccccc3)C(=O)O)cc2)cc1 (stereo not drawn) [Example 59, [1,1'-Biphenyl]-4-butanoic acid, 4'-(aminomethyl)γ-oxo-α-(3-phenylpropyl)-] | 33% |  |  | 2000 nM | 
17 | CN(C)c1ccc(-c2ccc(C(=O)CC(CCCc3ccccc3)C(=O)O)cc2)cc1 (stereo not drawn) [Example 60, [1,1'-Biphenyl]-4-butanoic acid, 4'-(dimethylamino)-γ-oxo-α-(3-phenylpropyl)-] |  |  | 600 nM | 180 nM | 
18 | CCc1ccc(-c2ccc(C(=O)CC(CC(C)C)C(=O)O)nc2)cc1 (stereo not drawn) [Example 61, 2-Pyridinebutanoic acid, 5-(4-ethylphenyl)-α-(2-methylpropyl)-γ-oxo-] | 35% | 22% |  |  | 
19 | O=C(CC(CCCc1ccccc1)C(=O)O)c1ccc(-c2ccc(C(F)(F)F)cc2)cc1 (stereo not drawn) [Example 62, [1,1'-Biphenyl]-4-butanoic acid, γ-oxo-α-(3-phenylpropyl)-4'-(trifluoromethyl)-] |  |  | 400 nM | 4500 nM | 
20 | O=C(CC(CCCc1ccccc1)C(=O)O)c1ccc(-c2ccc([N+](=O)[O-])cc2)cc1 (stereo not drawn) [Example 63, [1,1'-Biphenyl]-4-butanoic acid, 4'-nitro-γ-oxo-α-(3-phenylpropyl)-] |  |  | 980 nM | 500 nM | 

Other lines, results leading:

Row | inhibition at 5 µM (MMP-3; at 5 μM) | inhibition at 5 µM (MMP-9) | IC50 (MMP-3) | IC50 (MMP-9) | MMP-3 Thiopep. % inhibition (MMP-3; at 5 μM) | Compound
21 | 0.3% | 9% |  |  |  | CC(C)CC(CC(=O)c1ccc(-c2ccccc2Cl)cc1)C(=O)O (stereo not drawn) [Example 18, [1,1'-Biphenyl]-4-butanoic acid, 2'-chloro-α-(2-methylpropyl)-γ-oxo-]
22 |  |  | 550 nM | 1200 nM |  | COc1ccc(-c2ccc(C(=O)CC(CC(C)C)C(=O)O)cc2)cc1 (stereo not drawn) [Example 19, [1,1'-Biphenyl]-4-butanoic acid, 4'-methoxy-α-(2-methylpropyl)-γ-oxo-]
23 |  |  | 750 nM | 1200 nM |  | Cc1ccc(-c2ccc(C(=O)CC(CC(C)C)C(=O)O)cc2)cc1 (stereo not drawn) [Example 21, [1,1'-Biphenyl]-4-butanoic acid, 4'-methyl-α-(2-methylpropyl)-γ-oxo-]
24 |  |  | 790 nM | 1200 nM |  | CCCCCc1ccc(-c2ccc(C(=O)CC(CC(C)C)C(=O)O)cc2)cc1 (stereo not drawn) [Example 22, [1,1'-Biphenyl]-4-butanoic acid, α-(2-methylpropyl)-γ-oxo-4'-pentyl-]
25 | 24% | 0% |  |  |  | C=C(CC(=O)c1ccc(-c2ccc(Cl)cc2)cc1)C(=O)O [Example 23, [1,1'-Biphenyl]-4-butanoic acid, 4'-chloro-α-methylene-γ-oxo-, reference compound]
26 | 40% | 0% |  |  |  | C=C(CC(=O)c1ccc(-c2ccccc2Cl)cc1)C(=O)O [Example 24, [1,1'-Biphenyl]-4-butanoic acid, 2'-chloro-α-methylene-γ-oxo-, reference compound]
27 | 28% | 44% |  |  |  | O=C(O)/C=C/C(=O)c1ccc(-c2ccc(Cl)cc2)cc1 [Example 29, 4-Oxo-4-(4'-chloro-4-biphenyl)but-2-enoic acid, reference compound]
28 | 8% | 25% |  |  |  | O=C(O)/C=C/C(=O)c1ccc(Oc2ccc(Cl)cc2)cc1 [Example 30, 2-Butenoic acid, 4-[4-(4-chlorophenoxy)penyl]-4-oxo-, (E)-, reference compound]
29 | 56% | 29% |  |  |  | CC(C)CC(CC(=O)c1ccc(-c2ccc(O)cc2)cc1)C(=O)O (stereo not drawn) [Example 31, [1,1'-Biphenyl]-4-butanoic acid, 4'-hydroxy-α-(2-methylpropyl)γ-oxo-]
30 | 58% |  |  | 6000 nM |  | C=C(CC(=O)O)C(=O)c1ccc(-c2ccc(Cl)cc2)cc1 [Example 32, [1,1'-Biphenyl]-4-butanoic acid, 4'-chloro-β-methylene-γ-oxo-, reference compound]
31 |  | 0% |  |  | 0% | CC(C)CC1CC(c2ccc(-c3ccc(Cl)cc3)cc2)OC1=O (centres unmarked) [Example 36, 2(3H)-Furanone, 5-(4'-chloro[1,1'-biphenyl]-4-yl)dihydro-3-(2-methylpropyl)-, reference compound]
32 | 9% | 0% |  |  |  | CC(=O)c1ccc(-c2ccc(Cl)cc2)cc1 [Example 37, Ethanone, 1-(4'-chloro[1,1'-biphenyl]-4-yl)-]
33 |  | 10% | 10000 nM |  |  | C=C(CC(O)c1ccc(-c2ccc(Cl)cc2)cc1)C(=O)O (stereo not drawn) [Example 38, [1,1'-Biphenyl]-4-butanoic acid, 4'-chloro-γ-hydroxy-α-methylene-, reference compound]
34 |  |  | 700 nM | 4000 nM |  | CC(C)CC(CC(=O)c1ccc(-c2ccc(C#N)cc2)cc1)C(=O)O (stereo not drawn) [Example 46, [1,1'-Biphenyl]-4-butanoic acid, 4'-cyano-α-(2-methylpropyl)-γ-oxo-]
35 |  |  | 170 nM | 100 nM |  | CSc1ccc(-c2ccc(C(=O)CC(CCCc3ccccc3)C(=O)O)cc2)cc1 (stereo not drawn) [Example 51, [1,1'-Biphenyl]-4-butanoic acid, 4'-(methylthio)-γ-oxo-α-(3-phenylpropyl)-]
36 |  |  | 1200 nM | 1500 nM |  | Nc1ccc(-c2ccc(C(=O)CC(CCCc3ccccc3)C(=O)O)cc2)cc1 (stereo not drawn) [Example 58, [1,1'-Biphenyl]-4-butanoic acid, 4'-amino-γ-oxo-α-(3-phenylpropyl)-]
37 |  | 29% | 300 nM |  |  | CC(C)CC(CC(=O)c1ccc(-c2ccc(Cl)c(Cl)c2)cc1)C(=O)O (stereo not drawn) [Example 64, [1,1'-Biphenyl]-4-butanoic acid, 3',4'-dichloro-α-(2-methylpropyl)-γ-oxo-]
